The text below walks through data of a melting point compilation (Tetko et al.; mined from patent text by program, amines drawn as free bases though some values may be those of a salt).

By melting point is commonly meant the temperature of the solid-liquid transition. For `C=CCn1cc2c(c1)-c1ccc(Cl)cc1C(c1ccccc1F)=NC2`, the melting point was 100 to 102 °C. With `O=C(C=C(c1ccccc1)c1ccccc1)NCCCCc1cccnc1` the figure was 78 to 80 °C; with `CC(=O)NC1CCC(Nc2ncc3c(N)cc(=O)n(CCCO)c3n2)CC1` (stereo unspecified), greater than 300 °C. `CCN(CC)CCOc1ccc2c(C(=O)NC(=N)N)cccc2c1` gave a melting point of 168 to 169 °C. Compound `CC(C)C(NC(=O)C(C)(C)C)C(C)C` returned a melting point of 107 to 109 °C. As to `CC(=O)NC(=O)c1cc([N+](=O)[O-])cnc1C(Br)Br`, the melting point was found to be 168 °C. Consider `Cc1cc(C)n(C)c1C(=O)c1ccc(Cl)cc1Cl`, for which the melting point was in the range of 96 to 98 °C. Compound `COC(=O)CCCC(=O)N(CCc1c[nH]c2ccccc12)CC1CC1` returned a melting point of 99 to 100 °C. Take `Cn1c(C(F)(F)F)cc(=O)n(-c2ccc(Cl)c(C(=O)O)c2)c1=O`: the melting point lay within 235 to 236 °C. As for `O=C(Nc1cccc(O)c1)O[C@@H]1CN=C(c2ccccc2)O[C@H]1c1ccccc1` (racemic), the melting point was found to be 170 °C. `Oc1ccc2cc(-c3cnc(-c4cn(Cc5ccccc5)c5ccccc45)o3)ccc2c1` returned a melting point of 242 to 244 °C. `Cc1c(C)c2c(c(Cl)c1C=O)CC(C)(C)C2` displayed a melting point of 108 °C. As for `CN1CC2=C(n3cnc(C#Cc4ccccc4)c3C1)S(=O)C=C2` (stereo unspecified), the figure is 143 to 144 °C; as for `CN1CCC(=C2c3ccc(F)cc3Sc3ccc(F)cc32)CC1`, 120 to 123 °C. `Cc1ccccc1CNCCNCc1ccccc1C` showed a melting point of 51 to 52 °C. The compound `Cc1ccc(-c2cc3c(s2)CCCC(C(=O)O)=C3)cc1` yielded a melting point of 250 to 251 °C. In turn, `COC(=O)CCC/C=C(/c1ccc(OC)c(C(=O)OC)c1)c1cc(C)c2oc(=O)n(C)c2c1` returned a melting point of 134 to 135 °C. In the case of `CCCCOc1c(CN2C(=O)c3ccccc3C2=O)n(CCC(=O)O)c(=O)c2cc(Cl)c(Cl)cc12`, the melting point is 196 to 197 °C. With `CC1(C)OCCC(NC(=O)c2cnccc2C(F)(F)F)O1` (stereo unspecified) the figure was 155 to 156 °C; with `Cc1[nH]c(=O)[nH]c1C(=O)c1ccncc1`, 295 to 296 °C. As to `CCCCOc1nc(N)c2nc(OC)n(CCSc3cccc(CC(=O)O)c3)c2n1`, the melting point fell in the range of 205 to 207 °C.

Turning to `CCc1ccc(S(=O)O)cc1Cl`, the melting point was 58 to 60 °C. With `COC(=O)C1=C(C)NC(C)=C(C(=O)NC(C)C)C1c1ccccc1[N+](=O)[O-]` (stereo unspecified), the melting point fell in the range of 203 to 206 °C. With `COC(=O)CCCC(=O)c1ccc(OC)c(I)n1` the figure was 111 °C; with `CCCCCC1CCc2c(c(F)c(F)c3oc(C)cc23)O1` (stereo unspecified), 61 °C; with `COc1cc2cc(COC(C)=O)c(C(=O)OC3OC(CO)C(O)C(O)C3O)c(-c3ccc4c(c3)OCO4)c2cc1OC` (stereo unspecified), 127 to 130 °C. In turn, `C=CCOc1ccc2sc(=O)oc2c1` displayed a melting point of 78 to 80 °C. As to `COC=C(Oc1cccc(-c2ccc(Cl)cc2)n1)C(=O)OC`, the melting point is 50 to 54 °C. Compound `CCCCOC(=O)CCCCCCCCCCCOCC(O)CNCCO` (stereo unspecified) showed a melting point of 48.6 to 50.2 °C. `CCOC(=O)C(=CNc1ccc(F)cc1F)C(=O)c1c(F)cc(Cl)c(F)c1Cl`: the melting point lay within 84 to 86 °C. With `CCOC(=O)c1c(C)n(-c2ccccc2)c(C)c(C(=O)OCc2ccccc2)c1=O` the figure was 142 °C; with `CCn1ncc2c(NCC3CCC(C(=O)OCSC)CC3)c3ccccc3nc21` (stereo unspecified), 135 to 136 °C; with `CCCCCCCC(=O)N(C)Cc1cccc(-c2ccc(C=CC(=O)O)cc2)c1`, 124 to 125 °C. `Nc1cc(C(=O)c2cc3ccccc3o2)ccc1Cl` registered a melting point of 137 °C. `O=C(c1ccc([N+](=O)[O-])cc1)N1Cc2ccccc2Sc2ccccc21` returned a melting point of 147 to 149 °C.

`CCCOc1c(OCc2ccccc2)cc([C@H]2CC[C@H](c3cc(OC)c(OC)c(OC)c3)O2)cc1S(=O)(=O)CCO` (relative stereo) showed a melting point of 112 to 113 °C. `Cc1cc2c(cc1O)C(C)(C)CC1(CC(C)(C)c3cc(OC(C)(C)C(=O)O)c(C)cc3O1)O2` (stereo unspecified): the melting point lay in the range of 99 to 101 °C. The compound `COc1ccc2c(c1)C(c1ccc(N)cc1)=NNC(=O)C2` came in with a melting point of 167 to 170 °C. As for `O=C1c2ccccc2C(=O)N1Oc1ccc(-c2nc(=O)c3ccccc3s2)cn1`, the figure is 212 to 213 °C; as for `COC(=O)c1cc(OCc2cn(-c3ccc(C(F)(F)F)cn3)nc2C)nn1C`, 130 to 131 °C. With `Brc1cccc2[nH]cc(Cc3cccnc3)c12` the figure was 173 to 174 °C; with `CCn1ncc2c3onc(-c4ccc(C)cc4)c3cnc21`, 173 to 175 °C; with `COc1ccc(CC#N)cc1C(=O)NCc1ccc(C(F)(F)F)cc1`, 124 to 125 °C. For `CC(C)(C)OC(=O)N1CCN(CC(O)Cn2c3ccc(Br)cc3c3cc(Br)ccc32)CC1` (stereo unspecified), the melting point was 90 to 95 °C.

Compound `CC(=O)c1cccc(N2CCN(CCCCOc3ccc4ccc(=O)[nH]c4n3)CC2)c1Cl` showed a melting point of 108 to 110 °C.

`CCOC(=O)C1=C(C)NC(C)=C(C(=O)OCC)C1c1ccccc1/C=C(\C)c1ccccc1` showed a melting point of 141 to 142 °C.

`CNc1nc(Nc2ccc(Cl)c(CNC(=O)OC(C)(C)C)c2)ncc1[N+](=O)[O-]` returned a melting point of 195 °C. With `CC(C)(O)Cn1c(Oc2ccc(-n3c4ncccc4n4ccnc34)cc2)nc2ccccc21` the figure was 208 to 211 °C. Compound `CC(C)c1ccc(-n2c(CC(=O)O)c(C(=O)O)c3cc(Oc4cccc(Cl)c4)ccc32)cc1` returned a melting point of 176 to 182 °C.

Compound `Cc1cccc(C)c1NCC(=O)c1ccc(Cl)cc1` came in with a melting point of 82 °C. With `CCOCN1C(C)=C(C(=O)OCC)C(c2cccc([N+](=O)[O-])c2)C(C(=O)OCCBr)=C1C` (stereo unspecified) the figure was 102 to 104 °C; with `CCCCC1CCc2c(OCc3ccc4ccccc4n3)cccc2C1O` (stereo unspecified), 130 to 133 °C; with `COC(=O)C=CCOc1ccc(F)c(C(N)=O)c1F`, 122 to 123 °C. Compound `O=C(CCl)NCCOCCO` returned a melting point of 130 to 132 °C.

The compound `O=[N+]([O-])c1ccc2onc(-c3ccccc3O)c2c1` gave a melting point of 172 to 176 °C.

`CCCCCCCCCCCCCCCCCCOc1cccc(N(CC(=O)O)CC(=O)O)c1` returned a melting point of 130 to 133 °C. As to `CC(=O)c1csc(-c2nc3n(c2-c2ccncc2)CCC3)c1`, the melting point lay within 152 to 154 °C.

Compound `COc1c(Cl)ccc(-c2nc(Cl)c3c(ncn3C)n2)c1F` came in with a melting point of 184 to 186 °C. With `Oc1ccc2c(c1O)Cc1cccc3c1C2CNC3` (stereo unspecified), the melting point is 175 to 176 °C. With `CCCCCCCCCCCCCCN=C=S`, the melting point lay in the range of 77 to 79 °C. As for `CNc1nn(C(=O)Cl)c(=O)n1C`, the figure is 185 °C. On to `Oc1nc2ccc(Br)cc2[nH]1`, for which the melting point was in the range of 305 to 307 °C.

As for `CCOC(=O)C(C(=O)OCC)c1cc(OC)ccc1[N+](=O)[O-]`, the melting point lay in the range of 92 to 93 °C. `Cc1ccc(C(=O)Nc2ccc3ccc(Cl)nc3n2)s1` gave a melting point of 220 °C.

`CCC(COC)Nc1nc(C)nc(N2CCc3cc(OC)cc(Cl)c32)c1C#N` (stereo unspecified) gave a melting point of 182 to 183 °C. For `Cn1c(CCSN2CCC3(CC2)CC(=O)c2cc(NS(C)(=O)=O)ccc2O3)cc(=O)n(C)c1=O`, the melting point is 198 to 201 °C. `CC1(C)Oc2ccc(C(=O)O)cc2S1` yielded a melting point of 124 to 125 °C. `Cc1ccc2nc3n(c(=O)c2c1)-c1ccccc1C3=O` yielded a melting point of 266 to 267 °C.

Take `CCOC(=O)c1ccc(N)c(OCC#N)c1`: the melting point lay within 140 to 142 °C. For `N#Cc1c(N2CCc3ccccc3CC2)[nH]c(=S)[nH]c1=O`, the melting point was greater than 200 °C. For `CCCCn1ncc(/C=C(\Cc2cc3c(cc2OC)OCO3)C(=O)O)c1-c1ccc(OC)cc1OCc1ccccc1C(=O)O`, the melting point lay in the range of 213 to 214 °C. Consider `CCC(C)(C)NC(Nc1cc(OC)cc(OC)c1)=C(C#N)S(=O)(=O)c1ccc(Cl)cc1`, for which the melting point lay in the range of 189 to 190 °C. In turn, `CCOC(=O)CNC(=O)N(N(CCCl)S(C)(=O)=O)S(C)(=O)=O` returned a melting point of 121 to 122 °C.

Compound `COc1cc2c(cc1OC)CN(CCc1ccc(NC(=O)c3cccc4c(=O)c5cccc(C)c5[nH]c34)cc1)CC2` had a melting point of 175 °C. On to `COC(=O)c1snc(-c2cc(C(F)(F)F)cc(C(F)(F)F)c2)c1C(=O)OC`, for which the melting point was 71 to 74 °C. With `CCCCCCCCCCCC#Cc1cnccc1C=CC(=O)O` the figure was 177 to 178 °C; with `CC(C)(C)C#CC(O)(Cn1cncn1)C(C)(C)C` (stereo unspecified), 114 to 118 °C; with `Fc1ccc(-c2cn(C3CCCN4CCCCC34)nn2)cc1` (stereo unspecified), 142 °C. As to `O=C(SCC(Cc1ccc(Cl)cc1)C(=O)O)c1ccccc1` (stereo unspecified), the melting point is 111 to 114 °C. The compound `O=C=Nc1c(Cl)c(Cl)cc(Cl)c1Cl` showed a melting point of 62.5 to 63.5 °C. In the case of `COc1cccc(-c2ccc(NC(=O)OC(C)(C)C)c([N+](=O)[O-])c2)c1`, the melting point lay in the range of 104 to 107 °C. The compound `O=C1OC[C@@H](c2ccccc2)N[C@H]1Cc1ccccc1` yielded a melting point of 75 to 76 °C.

As to `O=c1[nH]c2ccccc2cc1CN1CC=C(CCc2ccccc2)CC1`, the melting point fell in the range of 177 to 179 °C. `O=C(O)c1cn(C2CC2)c2c(F)c(F)c(Cl)cc2c1=O` had a melting point of 200 to 204 °C.

Consider `CC1(C)CCC(C)(C)c2c(O)cc(-c3ccccc3)cc21`, for which the melting point stood at 121 °C. Compound `CCCOc1ccccc1-c1cc(C)c(C#N)c(=O)[nH]1` gave a melting point of 180 °C. Regarding `CC1(C)N=C(c2ccccc2)C(c2ccc(N)cc2)O1` (stereo unspecified), the melting point fell in the range of 162 to 163 °C. Compound `Cc1ccc(S(=O)(=O)Nc2cc(C3CCCC3)c([N+](=O)[O-])cc2Br)cc1` had a melting point of 122 °C. In the case of `O=S(=O)(c1ccc(Cl)cc1)c1ccc(NCc2nnn[nH]2)cc1`, the melting point was 102 to 105 °C.

Compound `N#Cc1nn(-c2c(Cl)cc(C(F)(F)F)cc2Cl)c(NCc2cnccn2)c1S(=O)C(F)(F)F` (stereo unspecified) gave a melting point of 169 °C.

As to `CCCOc1ccccc1-c1nc2nc(OC)nnc2c(=O)[nH]1`, the melting point lay within 234 to 235 °C.
